Results on 14 molecules are retold here after patent US10072293B2, “Systems, models and methods for identifying and evaluating skin-active agents effective for treating dandruff/seborrheic dermatitis” (The Procter and Gamble Company, priority 2011, dated 2018).

Values joined by “and” are separate entries in the source; they are usually repeats but may differ in a detail not shown here. Equal values may be shown once.

In assay [1] the test system is Human telomerized keratinocytes (tKC). In words: C-map query with lipid metabolism / immune-inflammation dandruff gene signature, keratinocyte instances. The class given is cell-based. The text has this: In a very specific embodiment, an instance consists of the rank ordered data for all of the probe sets on the Affymetrix HG-U133A2.0 GeneChip wherein each probe on the chip has a unique probe set IDentifier. The probe sets are rank ordered by the fold change relative to the controls in the same C-map batch (single instance/average of controls).
Individual experiments (referred to as batches) generally comprise 30 to 96 samples analyzed using Affymetrix GeneChip® technology platforms, containing 6 replicates of the vehicle control (e.g., DMSO), 2 replicate samples of a positive control that gives a strong reproducible effect in the cell type used, and samples of the test material/perturbagen. Replication of the test material is done in separate batches due to batch effects. In vitro testing was performed in 6-well plates to provide sufficient RNA for GeneChip® analysis (2-4 μg total RNA yield/well).
(§1) Human telomerized keratinocytes (tKC) were obtained from the University of Texas, Southwestern Medical Center, Dallas, Tex. tKC cells were grown in EpiLife® media with 1× Human Keratinocyte Growth Supplement (Invitrogen, Carlsbad, Calif.) on collagen I coated cell culture flasks and plates (Becton Dickinson, Franklin Lakes, N.J.). Keratinocytes were seeded into 6-well plates at 20,000 cells/cm^2 24 hours before chemical exposure. Human skin fibroblasts (BJ cell line from ATCC, Manassas, Va.) were grown in Eagle's Minimal Essential Medium (ATCC) supplemented with 10% fetal bovine serum (HyClone, Logan, Utah) in normal cell culture flasks and plates (Corning, Lowell, Mass.). BJ fibroblasts were seeded into 6-well plates at 12,000 cells/cm^2 24 hours before chemical exposure.
All cells were incubated at 37° C. in a humidified incubator with 5% CO2. At t=−24 hours cells were trypsinized from T-75 flasks and plated into 6-well plates in basal growth medium. At t=0 media was removed and replaced with the appropriate dosing solution as per the experimental design.

Assay [2] deals with reconstituted human epidermis (RHE). In words: Connectivity map linkage scores, inflammatory skin disorder signature (top 70 up / 70 down), RHE instances. Also noted: scale not given here. It counts as cell-based. The text has this:
(§2) Gene expression data from five inflammatory skin disorders (acne, atopic dermatitis, dandruff, eczema and psoriasis) were collected from a clinical genomics study and published studies. The raw expression data were used to produce a rank-ordered list of most differentially regulated genes associated with inflammatory skin disorders.
The derived gene signature was used to query a provided database comprising gene expression data from clinical genomics studies of a widely different inflammatory skin disorders, published in vitro genomics studies of disparate inflammatory skin disorders, and genomics data from an internal in vitro model of dandruff inflammatory pathology (human organotypic, MatTek, cultures).

For assay [3], the system named is human 3-dimensional organotypic cultures. As to the kind of experiment: In vitro model of dandruff: organotypic skin cultures given IL-22 and IL-17A. The class given is cell-based. The conditions noted are these: organotypic cultures treated with IL-22 and IL-17A. The text has this:
In some embodiments, the methods of the present invention may further comprise testing the selected candidate cosmetic agent, using in vitro assays and/or in vivo testing, to validate the activity of the agent and usefulness as a cosmetic agent. Any suitable in vitro test method can be used, including those known in the art, and most preferably in vitro models developed in accordance with the present invention. For example, MatTek human skin equivalent cultures or other skin equivalent cultures may be treated with one or a combination of perturbagens selected for mimicry of the skin condition of interest with respect to regulation of the genes constituting a physiological theme pattern for the skin condition of interest. The treated skin culture replicates the, for example, dandruff condition where it is treated with IL17 and IL22 in accordance with the instant invention, and perturbagens may be screened for their ability to shift the homeostatic equilibrium of the treated skin culture toward healthy skin, as determined by transcriptional analysis. Skin biopsy assays may also be used to evaluate candidate skin-active agents as anti-dandruff agents. In some embodiments, evaluation of selected agents using in vitro assays may reveal, confirm, or both, that one or more new candidate cosmetic agents may be used in conjunction with a known cosmetic agent (or a combination of known cosmetic agents) to regulate a skin condition of interest.
A great challenge in the identification of new therapeutics is the development of in vitro models that are predictive of clinical efficacy. Because no animal models of the dandruff condition are available, there is a need for a model with high fidelity to the internal disease state so that it recapitulates the key features of dandruff lesional skin in vivo. The challenge of developing a good in vitro model for skin conditions such as dandruff is complicated by the fact that the events that trigger the development of dandruff are poorly understood. Transcriptomic profiling work in dandruff lesional skin has provided many new clues, chief among them evidence for a Th-17 driven inflammatory process.
These substances include selenium sulfide, ZPT, ketoconazole, clobetasol propionate and the iron chelator 1,10-phenanthroline.
The in vitro disease simulation according to the invention produces a pattern of gene expression that strongly resembles dandruff lesional skin. Affymetrix U133A Plus 2 microarrays were used to evaluate the gene expression profile elicited by exposure of organotypic human skin cultures to a variety of proinflammatory cytokines individually and in combination, as set forth in FIG. 21A and FIG. 21B. […] This strongly supports that the simulation is producing a gene expression pattern that resembles the disease condition.

For the next assay, the system named is MCF7. In words: C-map query with lipid metabolism / immune-inflammation dandruff gene signature, MCF7 instances. The conditions noted are these: MCF7, 10 μM.
Assay [4] has as its system human keratinocytes (hKC). As to the kind of experiment: Connectivity map linkage scores, inflammatory skin disorder signature, hKC instances. The class given is cell-based.
Excerpt: as §2
The derived gene signature was used to query a provided database comprising gene expression data from clinical genomics studies of a widely different inflammatory skin disorders, published in vitro genomics studies of disparate inflammatory skin disorders, and genomics data from an internal in vitro model of dandruff inflammatory pathology (human organotypic, MatTek, cultures). […] Thus, the internal model was validated as being useful for study of inflammatory cascades and other gene expression alterations associated with inflammatory skin disorders.

In assay [5] the test system is fibroblast and keratinocyte cell lines. In words: C-map query with lipid-immune dandruff signature, whole database. It counts as cell-based, human. As to conditions: each agent tested at several concentrations. Here is the method: as §1
Each agent was tested at several concentrations.

The test system of assay [6] is scalp skin of dandruff subjects. In words: ZPT transcriptomics study: double-blind, vehicle-controlled shampoo treatment, scalp biopsy gene expression. The class given is in vivo, human. The conditions noted are these: shampoo with 1% ZPT, 3 times a week for 3 weeks, week 3. From the text: 1) 31 healthy male subjects aged 18-75 were divided into two groups of 16 “non-dandruff” and 15 “dandruff” subjects, as defined by a published flake scoring procedure, adherent scalp flake score (ASFS). […] 2) In a double-blinded treatment study, 45 healthy male subjects (30 dandruff and 15 non-dandruff as defined by ASFS criteria, aged 18-50 years) were enrolled and were shampooed at the clinical site three (3) times a week for three (3) weeks with either a commercially available anti-dandruff shampoo with 1% ZPT (15 dandruff subjects) or the same formula without ZPT (15 dandruff and 15 non-dandruff subjects). Full thickness 2 mm biopsies were collected from all three groups at baseline and end of study. Total RNA was extracted from the biopsies and labeled for Affymetrix GeneChip® analysis. The synthesized target cRNA was hybridized to Affymetrix HG U133A microarrays. Statistically analyzed data were filtered by significance (p<0.05, Dandruff vs. Non-Dandruff; ZPT vs. vehicle treatments) to identify genes showing an increase or decrease in expression level, a standard bioinformatics approach. Methodology and Results of Study 1:
The subject's hair/scalp was washed by study personnel on clinical site 3×/week for 3 weeks. Full thickness 2 mm punch biopsies collected at baseline and end of study. […]

As to `CC(C)(C)C(=O)C(Oc1ccc(Cl)cc1)n1ccnc1` (centres unmarked) [Climbazole], the “Score (connectivity score)” value in assay [1] (1 μM, 6hr (chip ID)) is recorded as −0.55; in assay [1] (10 μM, 24hr (chip ID)) it was −0.67.
With IL1b: interleukin, in assay [2] (10 ng/ml), the Score is 0.710 and 0.649; the “Up Score” value was 0.420 and 0.380.
For `c1cnc2c(c1)ccc1cccnc12` [1,10-phenanthroline], the “Blocking of IL-22/IL-17A-induced responses (hyperplasia, perturbed differentiation markers, IL-8 secretion)” value in assay [3] is reported as “capable of blocking these responses”.
On the same count and under the same terms, next, `CCC(=O)O[C@]1(C(=O)CCl)[C@@H](C)C[C@H]2[C@@H]3CCC4=CC(=O)C=C[C@]4(C)[C@@]3(F)[C@@H](O)C[C@@]21C` [Clobetasol Propionate]: “capable of blocking these responses”.
As to `CN(CCOc1ccc(CC2SC(=O)NC2=O)cc1)c1ccccn1` (centres unmarked) [Rosiglitazone], in the assay with MCF7, the “Score (connectivity score)” value is −0.51.
On to `CC(=O)N1CCN(c2ccc(OCC3COC(Cn4ccnc4)(c4ccc(Cl)cc4Cl)O3)cc2)CC1` (centres unmarked) [Ketoconazole], for which the “Score (connectivity score)” value in assay [1] (1 μM, 24hr (chip ID)) was −0.58. Also, the “Blocking of IL-22/IL-17A-induced responses (hyperplasia, perturbed differentiation markers, IL-8 secretion)” value in assay [3] is recorded as “capable of blocking these responses”.
Take “HK23/2 IL17: interleukin; proinflammatory cytokine produced by Th-17 cells”: in assay [4] (200 ng/ml), the “Down Score” value is given as −0.151, the Score stood at 0.579 and the “Up Score” value is 0.428.
For the molecule `O=C(O)Cc1cc(I)c(Oc2ccc(O)c(I)c2)c(I)c1` [Triac], in assay [1] (10 μM, exposure time not given), the “Score (connectivity score)” value was −0.53.
For `S=[Se]=S` [selenium sulfide], the “Blocking of IL-22/IL-17A-induced responses (hyperplasia, perturbed differentiation markers, IL-8 secretion)” value in assay [3] is recorded as “capable of blocking these responses”. For the same molecule, the “Linkage to lipid-immune dandruff gene signature” value in assay [5] was “not in the list of instances strongly linked to the gene signature”.
As for `[O-]n1ccccc1=S.[O-]n1ccccc1=S.[Zn+2]` [ZPT, zinc salt of 1-hydroxy-2-pyrithione], the “Blocking of IL-22/IL-17A-induced responses (hyperplasia, perturbed differentiation markers, IL-8 secretion)” value in assay [3] is “capable of blocking these responses”. Moreover, the “Scalp gene expression profile shift (~3700 significantly altered genes, hierarchical clustering)” value in assay [6] is listed as “expression shift toward the non-dandruff condition”. In addition, the “Linkage to lipid-immune dandruff gene signature” value in assay [5] is on record as “not in the list of instances strongly linked to the gene signature”.

B1: IL22: interleukin; proinflammatory cytokine produced by Th-17 cells (protein, UniProt Q9GZX6 34-179, looked up)
Interleukin-22: APISSHCRLDKSNFQQPYITNRTFMLAKEASLADNNTDVRLIGEKLFHGVSMSERCYLMKQVLNFTLEEVLFPQSDRFQPYMQEVVPFLARLSNRLSTCHIEGDDLHIQRNVQKLKDTVKKLGESGEIKAIGELDLLFMSLRNACI
For B1, in assay [2] (20 ng/ml), the Score was 0.789 and 0.740 and 0.705; the “Up Score” value is 0.444 and 0.410 and 0.388. Further, in assay [4] (200 ng/ml), the “Down Score” value is −0.214, the Score was 0.573 and the “Up Score” value is listed as 0.358.

B2: IL24: interleukin (protein, UniProt Q13007 52-206, looked up)
Interleukin-24: QEFHFGPCQVKGVVPQKLWEAFWAVKDTMQAQDNITSARLLQQEVLQNVSDAESCYLVHTLLEFYLKTVFKNYHNRTVEVRTLKSFSTLANNFVLIVSQLQPSQENEMFSIRDSAHRRFLLFRRAFKQLDVEAALTKALGEVDILLTWMQKFYKL
For B2, in assay [2] (20 ng/ml), the Score is 0.833 and 0.829 and 0.801; the “Up Score” value is 0.485 and 0.517 and 0.461.

B3: IFNg: interferon (protein, UniProt P01579 24-161, looked up)
Interferon gamma: QDPYVKEAENLKKYFNAGHSDVADNGTLFLGILKNWKEESDRKIMQSQIVSFYFKLFKNFKDDQSIQKSVETIKEDMNVKFFNSNKKKRDDFEKLTNYSVTDLNVQRKAIHELIQVMAELSPAAKTGKRKRSQMLFRG
On to B3, for which, in assay [2] (10 ng/ml), the Score was 0.665 and 0.657; the “Up Score” value is 0.420 and 0.431. Also, in assay [4] (20 ng/ml), the “Down Score” value is −0.102, the Score stood at 0.552 and the “Up Score” value is on record as 0.450.

B4: IL19: interleukin (protein, UniProt Q9UHD0 25-177, looked up)
Interleukin-19: LRRCLISTDMHHIEESFQEIKRAIQAKDTFPNVTILSTLETLQIIKPLDVCCVTKNLLAFYVDRVFKDHQEPNPKILRKISSIANSFLYMQKTLRQCQEQRQCHCRQEATNATRVIHDNYDQLEVHAAAIKSLGELDVFLAWINKNHEVMFSA
For the molecule B4, in assay [2] (20 ng/ml), the Score is 0.749 and 0.729 and 0.807; the “Up Score” value was 0.410 and 0.460 and 0.505.
